The first data set can be described thus: Determination of the log P values by HPLC (formic acid method). It is filed as physicochemical. Particulars: reversed-phase HPLC column (C 18), reversed-phase column (C 18), acidic range (pH 3.4), 55° C. The protocol:
1) Description of Method for Determination of the Log P Values (Formic Acid Method)
Eluents for determination in the acidic range (pH 3.4):
Eluent A: acetonitrile+1 ml of formic acid/liter. Eluent B: water+0.9 ml of formic acid/liter.
The lambda max values were determined in the maxima of the chromatographic signals using the UV spectra from 200 nm to 400 nm.
As for `Nc1ccn(-c2cc(F)ccc2F)n1` [1-(2,5-Difluorophenyl)-1H-pyrazole-3-amine], the chromatographic logP was determined as 1.58.

For `O=C(Nc1ccn(-c2nc(F)c(F)cc2F)n1)c1ccccc1Br` [Compound I-1-164, 2-Bromo-N-[1-(3,5,6-trifluoropyridin-2-yl)-1H-pyrazol-3-yl]benzamide], the chromatographic logP amounted to 2.68.

As to `Nc1nn(-c2ccccc2Cl)cc1Cl` [4-Chloro-1-(2-chlorophenyl)-1H-pyrazole-3-amine], the chromatographic logP is 2.14.

For `Nc1ccn(-c2ncc(F)cc2Cl)n1` [1-(3-Chloro-5-fluoropyridin-2-yl)-1H-pyrazole-3-amine], the chromatographic logP is 0.98.

The data set is the same for the next values; noted with them: reversed-phase column (C 18), acidic range (pH 3.4), 55° C.
As for `C#CCN(C(=O)c1ccccc1C(F)(F)F)c1ccn(-c2ncc(F)cc2F)n1` [Compound I-1-470], the “log P” value came out at 3.05.

`Cc1nn(C)cc1C(=O)Nc1ccn(-c2c(F)cccc2F)n1` [Compound I-1-107]: the “log P” value is on record as 1.71.

As to `Cn1nc(C(F)F)c(C(=O)Nc2ccn(-c3c(F)cccc3F)n2)c1F` [Compound I-1-283], the “log P” value stood at 2.27.

Regarding `O=C(Nc1ccn(-c2c(Cl)cccc2Cl)n1)c1cccnc1OC(F)(F)F` [Compound I-1-226], the “log P” value is 3.21.

As to `CCOc1cccc(F)c1-n1ccc(NC(=O)c2ccccc2Br)n1` [Compound I-1-399], the log partition coefficient (log P) was 2.87.

With `O=C(c1ccccc1C(F)(F)F)N(C(=O)c1ccccc1C(F)(F)F)c1nn(-c2ccccc2Br)nc1Cl` [Compound I-2-27], the “log P” value was determined as 4.87.

For `N#Cc1cncnc1-n1ccc(NC(=O)c2c(F)cccc2F)n1` [Compound I-1-595], the “log P” value was found to be 2.03.

`O=C(Nc1cnn(-c2c(F)cccc2F)n1)c1ccccc1Cl` [Compound I-2-38]: the “log P” value is recorded as 2.66.

With `CCCn1cc(Cl)c(C(=O)Nc2ccn(-c3c(F)cccc3F)n2)n1` [Compound I-1-315], the “log P” value is 3.05.

For the compound `Cc1cc(NC(=O)c2ccccc2I)nn1-c1ccc(F)cc1F` [Compound I-1-214], the “log P” value is recorded as 3.73.

On to `Cc1occc1C(=O)Nc1ccn(-c2c(F)cccc2F)n1` [Compound I-1-281], for which the “log P” value came to 2.43.

For `Cn1nc(C(C)(C)C)c(Cl)c1C(=O)Nc1ccn(-c2c(F)cccc2F)n1` [Compound I-1-293], the “log P” value came out at 4.15.

For the compound `O=C(Nc1ccn(-c2ncc(F)cn2)n1)c1c(F)cccc1F` [Compound I-1-602], the “log P” value came to 1.83.

Take `O=C(Nc1nn(-c2ccccc2Br)nc1Cl)c1ccccc1C(F)(F)F` [Compound I-2-26]: the “log P” value came out at 3.22.

Regarding `Cn1ncc(Cl)c1C(=O)Nc1ccn(-c2c(F)cccc2F)n1` [Compound I-1-311], the lipophilicity (log P) worked out at 2.46.

In the case of `Cc1nnsc1C(=O)Nc1ccn(-c2ncc(F)cc2F)n1` [Compound I-1-160], the “log P” value worked out at 1.91.

On to `O=C(Nc1ccn(-c2ncc(F)cc2F)n1)c1cncnc1C(F)(F)F` [Compound I-1-154], for which the “log P” value was determined as 2.00. This log P and that of the compound before are within 0.2 log units of each other.

As to `O=C(Nc1ccn(-c2c(F)cccc2F)n1)C1=C(C(F)(F)F)OCCS1` [Compound I-1-102], the “log P” value is 2.56.

With `N#Cc1cn(-c2ccccc2Cl)nc1NC(=O)c1ccccc1I` [Compound I-1-368], the log partition coefficient (log P) amounted to 2.51.

As for `CC1=C(C(=O)Nc2ccn(-c3ncc(F)cc3F)n2)CCCO1` [Compound I-1-548], the “log P” value turned out to be 2.10.

Consider `CC1=C(C(=O)Nc2ccn(-c3ccccc3Cl)n2)SCCO1` [Compound I-1-372], for which the “log P” value is on record as 2.75.

Turning to `O=C(Nc1ccn(-c2ccccc2Cl)n1)c1c(F)cccc1F` [Compound I-1-36], the “log P” value was found to be 2.65. The log P values of the last two compounds are within 0.2 log units of each other.

Turning to `CCn1nc(C)c(Br)c1C(=O)Nc1ccn(-c2c(F)cccc2F)n1` [Compound I-1-300], the lipophilicity (log P) was 3.15.

Consider `O=C(Nc1ccn(-c2ncccc2Br)n1)c1ccccc1C(F)(F)F` [Compound I-1-549], for which the “log P” value is on record as 2.42.

Turning to `O=C(Nc1ccn(-c2c(F)cccc2F)n1)c1cccnc1C(F)(F)F` [Compound I-1-93], the log partition coefficient (log P) is listed as 2.68.

Regarding `O=C(Nc1ccn(-c2ncccc2F)n1)c1cccnc1Cl` [Compound I-1-579], the “log P” value turned out to be 1.53.

As for `Cc1ccsc1C(=O)Nc1ccn(-c2c(F)cccc2F)n1` [Compound I-1-103], the “log P” value was determined as 2.64.

For `Cc1cc(NC(=O)c2ccccc2S(C)(=O)=O)nn1-c1ccccc1Cl` [Compound I-1-342], the “log P” value came out at 1.82.

As for `O=C(Nc1cnn(-c2ncccc2Cl)n1)c1ccccc1I` [Compound I-2-14], the “log P” value stood at 2.36.

Consider `O=C(Nc1ccn(-c2ncc(F)cc2F)n1)C1=C(C(F)(F)F)OCCS1` [Compound I-1-155], for which the “log P” value turned out to be 2.35.

As for `O=C(Nc1ccn(-c2c(F)cccc2F)n1)c1cccc(Cl)c1Cl` [Compound I-1-266], the “log P” value is 2.93.

Regarding `O=C(Nc1ccn(-c2ccccc2Br)n1)c1ccccc1C(F)(F)F` [Compound I-1-50], the “log P” value amounted to 3.07.

In the case of `COc1ccccc1-n1ccc(NC(=O)c2ccccc2I)n1` [Compound I-1-411], the “log P” value is on record as 2.83.

On to `N#Cc1cc(F)ccc1-n1ccc(NC(=O)c2c(F)cccc2F)n1` [Compound I-1-628], for which the “log P” value is on record as 2.39.

In the case of `Cn1nc(C(C)(C)C)c([N+](=O)[O-])c1C(=O)Nc1ccn(-c2c(F)cccc2F)n1` [Compound I-1-292], the “log P” value was found to be 3.33.

As to `Cc1nn(-c2ncccc2Cl)nc1N(C(=O)c1ccccc1I)C(=O)c1ccccc1I` [Compound I-2-61], the “log P” value came to 4.03.

As for `O=C(Nc1ccn(-c2ncccc2F)n1)c1ccsc1I` [Compound I-1-581], the “log P” value is 2.30.

Consider `CCCc1c(Cl)c(C(=O)Nc2ccn(-c3c(F)cccc3F)n2)nn1C` [Compound I-1-314], for which the “log P” value is 3.32.

Compound `CC(=O)Nc1ccn(-c2c(F)cccc2F)n1` [N-[1-(2,6-Difluorophenyl)-1H-pyrazol-3-yl]acetamide] had a chromatographic logP of 1.33.

In the case of `O=C(c1ccccc1Cl)N(CC1CC1)c1ccn(-c2ccccc2Cl)n1` [Compound I-1-24], the “log P” value was determined as 3.85.

On to `O=C(Nc1ccn(-c2ccccc2Cl)n1)c1cccnc1C(F)(F)F` [Compound I-1-42], for which the “log P” value was 2.48.

With `Cn1nc(C(F)(F)F)c(Br)c1C(=O)Nc1ccn(-c2ncc(F)cc2F)n1` [Compound I-1-522], the “log P” value is 3.19.

As to `CC(C)c1nn(C)c(C(=O)Nc2ccn(-c3c(F)cccc3F)n2)c1[N+](=O)[O-]` [Compound I-1-290], the “log P” value is 2.93.

As to `CN(C(=O)c1ccccc1C(F)(F)F)c1ccn(-c2ncc(F)cc2F)n1` [Compound I-1-467], the “log P” value was 2.96.

In the case of `CCc1cc(NC(=O)c2ccccc2I)nn1-c1ccc(F)cc1F` [Compound I-1-215], the “log P” value is reported as 4.15.

Regarding `O=C(Nc1cnn(-c2c(F)cccc2F)n1)c1sccc1C(F)(F)F` [Compound I-2-82], the “log P” value worked out at 2.95.

In the case of `O=C(Nc1ccn(-c2ccccc2Cl)n1)c1c(F)cccc1C(F)(F)F` [Compound I-1-384], the “log P” value is 3.05.

Regarding `Cc1nc(C)c(C(=O)Nc2ccn(-c3ncc(F)cc3F)n2)s1` [Compound I-1-478], the “log P” value was 1.88.

For `Cc1ccccc1C(=O)NC1=NN(c2c(F)cccc2F)CC1` [Compound I-4-5], the “log P” value worked out at 2.21.

With `Cc1nn(-c2ccccc2Cl)nc1N(C(=O)c1ccccc1C(F)(F)F)C(=O)c1ccccc1C(F)(F)F` [Compound I-2-22], the “log P” value was found to be 4.54.

With `O=C(Nc1ccn(-c2ccccc2Cl)n1)c1cccnc1OC(F)(F)F` [Compound I-1-344], the “log P” value turned out to be 3.10.

Consider `O=[N+]([O-])c1ccn(-c2c(F)cccc2F)c1` [Ex. 46-II, 1-(2,6-Difluorophenyl)-3-nitro-M-pyrrole], for which the “log P” value is given as 2.58.

On to `O=C(Nc1cnn(-c2ccccc2Cl)n1)c1ccccc1I` [Compound I-2-3], for which the “log P” value is 3.03.

Regarding `Nc1cc(NC(=O)c2ccccc2Cl)nn1-c1ccccc1Cl` [Compound I-1-361], the “log P” value amounted to 1.88.

Consider `CCOc1cccc(Cl)c1-n1ccc(NC(=O)c2ccccc2Br)n1` [Compound I-1-398], for which the “log P” value is reported as 3.03.

On to `O=C(Nc1ccn(-c2c(F)cccc2F)n1)c1cc(Cl)ccc1C(F)(F)F` [Compound I-1-329], for which the “log P” value is 3.11.

On to `N#Cc1cc(F)ccc1-n1ccc(NC(=O)c2cccnc2C(F)(F)F)n1` [Compound I-1-627], for which the “log P” value is on record as 2.21.

On to `CCC(C)n1ncc(Cl)c1C(=O)Nc1ccn(-c2c(F)cccc2F)n1` (stereo not drawn) [Compound I-1-244], for which the “log P” value was determined as 3.58.

Take `O=C(Nc1ccn(-c2ncc(F)cc2F)n1)c1ccccc1C1CC1` [Compound I-1-486]: the “log P” value amounted to 2.68.

Consider `O=C(Nc1ccn(-c2cccc(F)c2F)n1)c1ccccc1C(F)(F)F` [Compound I-1-62], for which the “log P” value amounted to 3.07.

For the compound `Cc1cnoc1C(=O)Nc1ccn(-c2c(F)cccc2F)n1` [Compound I-1-327], the “log P” value is reported as 2.24.

For the compound `CCOc1c(F)cccc1-n1ccc(NC(=O)c2ccccc2Br)n1` [Compound I-1-396], the “log P” value is given as 2.91.

Turning to `O=C(Nc1nn(-c2ccccc2Cl)cc1Cl)c1ccccc1Cl` [Compound I-1-28], the “log P” value came to 2.88. This log P and that of the compound before are within 0.2 log units of each other.

Consider `O=C(Nc1ccn(-c2ccccc2Cl)n1)c1sccc1C(F)F` [Compound I-1-374], for which the “log P” value turned out to be 3.15.

Take `Cc1nn(-c2ccccc2Cl)nc1NC(=O)c1ccccc1C(F)(F)F` [Compound I-2-21]: the “log P” value is 2.93.

On to `O=C(Nc1ccn(-c2ncccc2F)n1)c1ccccc1Br` [Compound I-1-130], for which the “log P” value was found to be 2.12.

Take `O=C(Nc1ccn(-c2ncc(F)cc2F)n1)c1cccc(Cl)c1Cl` [Compound I-1-476]: the “log P” value is listed as 2.72.

With `O=C(Nc1ccn(-c2cc(F)c(F)cc2F)n1)c1cccnc1C(F)(F)F` [Compound I-1-192], the “log P” value was 3.42.

The chromatographic logP is a lipophilicity value derived from retention on a column. A lower chromatographic logP goes with lower lipophilicity. As usually defined, the log P is the decadic logarithm of the partition coefficient of the neutral form, usually between octanol and water. Lower therefore signals lower lipophilicity.

(Values after patent US9802899B2, “Heterocyclic compounds as pesticides” (BAYER CROPSCIENCE AG, priority 2012, dated 2017).)
